{"source": "paper PMC7383852", "about": "(Annals of Neurology, 2020)", "key": {"Electrocardiogram QTc": {"assay": "Electrocardiogram QTc", "conditions": "nilotinib group versus placebo group"}, "patients with CML": {"system": "patients with CML", "conditions": "studies of 5,661 patients; ref nilotinib prescription information; cited from earlier work"}, "[1]": {"system": "participants with mild to moderate dementia due to Alzheimer's disease", "assay": "MMSE", "format": "in vivo, human", "conditions": "nilotinib-treated group, 12 months"}, "[2]": {"system": "participants with mild to moderate dementia due to Alzheimer's disease", "assay": "ADCS-ADL", "format": "in vivo, human", "conditions": "nilotinib group, 12 months"}, "Abelson": {"system": "Abelson", "conditions": "read-out: Abelson inhibition IC50; cited from earlier work"}, "[3]": {"assay": "Nilotinib in plasma and CSF by mass spectrometry", "conditions": "human, in vivo"}, "[4]": {"system": "participants with mild to moderate dementia due to Alzheimer's disease", "assay": "CDR-SOB", "format": "in vivo, human", "conditions": "nilotinib-treated group"}, "[5]": {"system": "participants with mild to moderate dementia due to Alzheimer's disease", "assay": "Adverse events and serious adverse events, phase 2 trial"}, "CSF DOPAC and HVA": {"system": "CSF DOPAC and HVA", "assay": "CSF dopamine metabolites DOPAC and HVA by UHPLC-MS/MS", "format": "in vivo, human"}, "DDR1": {"system": "DDR1", "conditions": "read-out: DDR1 inhibition IC50; 21 (b2); cited from earlier work"}}, "data": [{"smiles": "Cc1cn(-c2cc(NC(=O)c3ccc(C)c(Nc4nccc(-c5cccnc5)n4)c3)cc(C(F)(F)F)c2)cn1", "note": "[nilotinib, Nilotinib]", "values": [{"measurement": "QTc prolongation", "setting": "Electrocardiogram QTc", "result": "No QTc prolongation was observed"}, {"measurement": "Sudden death, share of patients with CML", "setting": "patients with CML", "result": 0.3, "unit": "%"}, {"measurement": "MMSE annual decline", "setting": "[1]", "result": "−2.50", "unit": "patients"}, {"measurement": "ADCS-ADL decline", "setting": "[2]", "result": "−4.5", "unit": "points"}, {"measurement": "IC50", "setting": "Abelson", "result": "> 20", "unit": "nM"}, {"measurement": "AUC", "setting": "[3]; 150 mg, CSF, 150 mg daily", "result": 7.59, "unit": "ng·h/mL"}, {"measurement": "AUC", "setting": "[3]; 150 mg, Plasma, 150 mg daily", "result": 2510, "unit": "ng·h/mL"}, {"measurement": "Cmax", "setting": "[3]; 150 mg, CSF, 150 mg daily", "result": 3.46, "unit": "nM"}, {"measurement": "Cmax", "setting": "[3]; 150 mg, Plasma, 150 mg daily", "result": 1100, "unit": "nM"}, {"measurement": "Tmax", "setting": "[3]; 150 mg, CSF, 150 mg daily", "result": 3, "unit": "h"}, {"measurement": "Tmax", "setting": "[3]; 150 mg, Plasma, 150 mg daily", "result": 4, "unit": "h"}, {"measurement": "AUC", "setting": "[3]; 300 mg, CSF, 300 mg daily", "result": 11.3, "unit": "ng·h/mL"}, {"measurement": "AUC", "setting": "[3]; 300 mg, Plasma, 300 mg daily", "result": 3380, "unit": "ng·h/mL"}, {"measurement": "Cmax", "setting": "[3]; 300 mg, CSF, 300 mg daily", "result": 4.7, "unit": "nM"}, {"measurement": "Cmax", "setting": "[3]; 300 mg, Plasma, 300 mg daily", "result": 1410, "unit": "nM"}, {"measurement": "CDR-SOB decline", "setting": "[4]; 6 months", "result": 1.5, "unit": "points"}, {"measurement": "CDR-SOB decline", "setting": "[4]; 12 months", "result": 2.5, "unit": "points"}, {"measurement": "Mood swings", "setting": "[5]; between 6 and 12 months, 300 mg", "result": 70.6, "unit": "%"}, {"measurement": "Mood swings or behavioral changes", "setting": "[5]; between baseline and 6 months, 150 mg", "result": "No mood swings or behavioral changes were reported"}, {"measurement": "No. of SAEs/no. of patients (%)", "setting": "[5]; n = 17", "result": 0}, {"measurement": "SAE Bronchitis", "setting": "[5]; n = 17", "result": "0 No. of events (%)"}, {"measurement": "SAE Hypotension", "setting": "[5]; n = 17", "result": "0 No. of events (%)"}, {"measurement": "SAE Psychosis", "setting": "[5]; n = 17", "result": "0 No. of events (%)"}, {"measurement": "SAE Rhabdomyolysis", "setting": "[5]; n = 17", "result": "0 No. of events (%)"}, {"measurement": "SAE Vertigo", "setting": "[5]; n = 17", "result": "0 No. of events (%)"}, {"measurement": "Agitation", "setting": "[5]; nilotinib group", "result": 52.9, "unit": "%"}, {"measurement": "Diarrhea", "setting": "[5]; nilotinib group", "result": 41.2, "unit": "%"}, {"measurement": "Irritability", "setting": "[5]; nilotinib group", "result": 35.2, "unit": "%"}, {"measurement": "Pain", "setting": "[5]; nilotinib group", "result": 41.2, "unit": "%"}, {"measurement": "Total number of SAEs", "setting": "[5]; nilotinib group", "result": 0, "unit": "%"}, {"measurement": "Number of AEs", "setting": "[5]; nilotinib group, 12 months", "result": 122}, {"measurement": "Hypokalemia, hypomagnesemia, long QT syndrome", "setting": "[5]; this study", "result": "no hypokalemia, hypomagnesemia, or long QT syndrome were observed"}, {"measurement": "CSF HVA change in the nilotinib group", "setting": "CSF DOPAC and HVA; 6 months", "result": -71.9, "unit": "nM"}, {"measurement": "CSF HVA change, nilotinib compared to placebo", "setting": "CSF DOPAC and HVA; 6 months", "result": -61.5, "unit": "nM"}, {"measurement": "CSF DOPAC change in the nilotinib group", "setting": "CSF DOPAC and HVA; 12 months", "result": -0.3, "unit": "nM"}, {"measurement": "CSF HVA change in the nilotinib group", "setting": "CSF DOPAC and HVA; 12 months", "result": -47.4, "unit": "nM"}, {"measurement": "CSF HVA change, nilotinib compared to placebo", "setting": "CSF DOPAC and HVA; 12 months", "result": -37.1, "unit": "nM"}, {"measurement": "IC50", "setting": "DDR1", "result": "[…]"}]}]}
